pEC50, pIC50: −log10 of the molar value. Calls of active or inactive are those of the source.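 Rule for the calls: active = compounds giving half or more protection of infected cells from virus-caused growth loss, again on retest; inactive = the rest.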
System: CEM cells HIV-1 protection, formazan growth assay
Assay: NCI AIDS Antiviral Assay
Settings: for pIC50: measured here: growth of uninfected CEM cells
Summary of the method: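 CEM (human) cells, HIV-1 infected vs uninfected, 5-point dosing, formazan growth read-out. Retest threshold 50% protection.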

## COC(=O)C1=C(C(=O)OC)N(C(C)C)[C@H]2C(C(=O)OC)=C(C(=O)OC)N(C(C)C)[C@@H]12
  pEC50: < 5.61
  pIC50: < 5.61

## COc1ccc([C@@]23CCC(=O)C[C@@H]2N(C)CC3)cc1OC
  pEC50: < 3.70
  pIC50: < 3.70

## NC(=O)c1c(NC=O)ncn1C1OCC(O)C(O)C1O (configuration not stated)
  pEC50: < 3.70
  pIC50: < 3.70

## O=S(Cc1ccccn1)c1nc2ccccc2nc1-c1ccccc1 (configuration not stated)
  pEC50: < 4.54
  pIC50: < 4.54

## COc1cc(/C=C/C(=O)CC(=O)/C=C/c2ccc(O)cc2)ccc1O
  pEC50: < 3.70
  pIC50: 4.93

## Cc1ccc(NC(=O)CC(=O)n2nc(C)c(N=Nc3cccc(C)c3)c2C)cc1
  pEC50: < 3.70
  pIC50: < 3.70

## CCc1ccc(Cc2ccc(CC)c(NC(=O)C(=O)Cc3nc4ccccc4nc3C)c2CC)c(CC)c1NC(=O)C(=O)Cc1nc2ccccc2nc1C
  pEC50: < 4.87
  pIC50: < 4.87

## C[n+]1c2cc(N)ccc2cc2ccc(N)cc21 (tested in a mixture with another compound)
  pEC50: < 3.70
  pIC50: 6.50

## O=[N+]([O-])c1ccc(CS(=O)(=O)c2ccccc2)cc1
  outcome: inactive

## N[C@H]1CCC[C@@H](O)C1O (some centres not stated)
  pEC50: < 3.70
  pIC50: < 3.70

## CCCCCCCCCCN=Cc1c(O)c(O)c(CCC)c2cc(C)c(-c3c(C)cc4c(CCC)c(O)c(O)c(C=NCCCCCCCCCC)c4c3O)c(O)c12
  outcome: inactive

## C=C1c2cc3c(cc2CC12Cc1cc4c(cc1C2=O)CCC4)CCC3 (configuration not stated)
  pEC50: < 3.70
  pIC50: < 3.70

## COc1ccc(OC)c2c(C(=O)O)c(C(C)c3ccccc3)ccc12 (configuration not stated)
  outcome: inactive

## O=C(Nc1nc2ncn(CCNCc3ccccc3)c2c(=O)[nH]1)c1ccccc1
  pEC50: < 3.76
  pIC50: 3.98

## COc1cc2c(cc1O)C1(Cc3ccc4c(c3[C@@H]1O)OCO4)N(C)CC2 (some centres not stated)
  pEC50: < 3.85
  pIC50: < 3.85

## COc1ccc(NC(C)c2ccncc2)cc1 (configuration not stated)
  pEC50: < 3.70
  pIC50: < 3.70

## CCOC(=O)c1ccc(CS(=O)c2ccccc2)c([N+](=O)[O-])c1 (configuration not stated)
  pEC50: < 3.69
  pIC50: 5.46

## COC(=O)C(C(=O)C(=O)Nc1ccc(OC)cc1[N+](=O)[O-])c1nc2cc(C)c(C)cc2[nH]c1=O (configuration not stated)
  pEC50: < 4.81
  pIC50: < 4.81

## C/C(=N\NC(=S)N(C)C)c1ncc[nH]1
  pEC50: < 3.63
  pIC50: 5.37

## COC(=O)C1=C(C(=O)OC)SC2(S1)C(C(=O)OC)=C(C(=O)OC)Sc1c2ssc1=O
  pEC50: < 6.70
  pIC50: 7.24

## O=C1CCC(=O)C(C(=O)CCC(=O)Nc2cccc(Cl)c2)C1 (configuration not stated)
  pEC50: < 3.25
  pIC50: < 3.25

## CC(C)(C)C(C#N)(C#N)c1ccc(C(C#N)(C#N)C(C)(C)C)nn1
  outcome: inactive

## CCc1c(O)sc2c(c1=O)C(=NCC(C)C)CC(C)(C)N2
  pEC50: < 4.49
  pIC50: < 4.49

## CC(NC(=O)C(OC(=O)C(C)NC(=O)OC(C)(C)C)C(C)C)C(=O)OC(C(=O)O)C(C)C (configuration not stated)
  pEC50: < 3.70
  pIC50: < 3.70

## COC(=O)C1ON(C(=O)c2ccccc2)C(C)C2OC12 (configuration not stated)
  pEC50: < 3.49
  pIC50: < 3.49

## N#Cc1nc(C(F)(F)F)oc1N
  outcome: inactive

## COC(=O)[C@@H](N1C(=O)c2ccccc2C1=O)C1(C)CC(Cl)=NO1 (some centres not stated)
  pEC50: < 3.70
  pIC50: < 3.70

## COC1(OC)C2C=CC1C([C@](C)(N)CO)C2 (some centres not stated)
  pEC50: < 2.96
  pIC50: < 2.96

## CC(C(=O)O)c1ccc(C(=O)c2cccs2)cc1 (configuration not stated)
  pEC50: < 3.70
  pIC50: < 3.70

## COc1cc2c(cc1OC)-c1cc3ccccc3c[n+]1CC2
  pEC50: < 3.70
  pIC50: < 3.70

## CC(=O)Nc1ccc(C(=O)N2N=C(C)/C(=C/c3ccccc3O)C2=O)cc1
  pEC50: < 4.29
  pIC50: < 4.29

## Cc1ccn2c(=O)cc(CN3CCOCC3)nc2c1
  pEC50: < 3.70
  pIC50: < 3.70

## C#CCOC(=O)C(=[N+]=[N-])C(=O)CC(C)C
  pEC50: < 3.70
  pIC50: < 3.70

## COc1ccc(N2C(=O)C3c4[nH]c5ccccc5c4C4CCCCCCCC4C3C2=O)cc1 (configuration not stated)
  pEC50: < 3.70
  pIC50: 4.09

## NC(Cc1csc2ccccc12)C(=O)O (configuration not stated)
  pEC50: < 3.70
  pIC50: 4.71

## Cn1c(O)c(C=Nc2ccccc2Cl)c(=O)n(C)c1=O
  outcome: inactive

## CC(NC(=O)C(CC(=O)OCc1ccccc1)NC(=O)OCc1ccccc1)c1ccccc1 (configuration not stated)
  pEC50: < 3.70
  pIC50: < 3.70

## CC/C=C1\N=C(c2ccc(Cl)cc2)OC1=O
  pEC50: < 3.82
  pIC50: 3.90

## CN(C)CC1CCCC(CN(C)C)C1=NO (configuration not stated)
  outcome: inactive

## CCCOC(=O)Nc1ccc2nc(N(C)C)sc2c1
  pEC50: < 3.61
  pIC50: 4.18

## CC1(C)COC(C2Cc3ccccc3C(O)(c3ccccc3)C2)=N1 (configuration not stated)
  pEC50: < 3.70
  pIC50: < 3.70

## CCOP(=O)(OCC)/C(C#N)=C/c1cn(C)cn1
  pEC50: < 3.70
  pIC50: < 3.70

## COC(=O)C(C(=O)C(=O)Nc1c(Cl)cc([N+](=O)[O-])cc1Cl)c1csc(-n2nc(C3=CCCCC3)cc2-c2ccccc2)n1 (configuration not stated)
  pEC50: < 3.97
  pIC50: < 3.97

## CC1(C)Cc2c(oc3ncnc(N)c23)CS1
  pEC50: < 3.54
  pIC50: < 3.54

## O=c1nc(N2CCCC2)nc(N2CCCC2)s1
  outcome: inactive

## O=[N+]([O-])c1ccc(N=Nc2c(F)cc(NCS(=O)(=O)O)cc2F)cc1
  pEC50: < 4.00
  pIC50: < 4.00

## COC(=O)CCC(C)C1CCC2C3CCC4CC5CCC4C3(CO5)C(=O)C(Br)C12C (configuration not stated)
  pEC50: < 4.97
  pIC50: < 4.97

## CN[C@@H](C)[C@@H](NC)c1ccccc1
  outcome: inactive

## N#CC(C#N)=C(N)/C(C#N)=C\c1ccnc2ccccc12
  pEC50: < 4.58
  pIC50: 5.39

## CCOC(=O)C(CN1CCN(CC(NC=O)(C(=O)OCC)C(=O)OCC)CC1)(NC=O)C(=O)OCC
  pEC50: < 3.70
  pIC50: 4.45

## CCCCCCCCCCCCCCCc1nc(SCC(=O)O)n[nH]1
  pEC50: < 5.41
  pIC50: < 5.41

## CCn1c(SCC(=O)NNC(=S)NC)nc2ccccc2c1=O
  pEC50: < 3.70
  pIC50: < 3.70

## CCOC(CN(C)C(=O)OCC(Cl)(Cl)Cl)OCC
  pEC50: < 4.65
  pIC50: < 4.65

## CC(C)[C@](O)(C(=O)OCC1=CCN2CC[C@@H](O)[C@@H]12)[C@H](C)O
  pEC50: < 3.38
  pIC50: < 3.38

## CC1=C(C)C1[N+](=O)[O-]
  pEC50: < 3.70
  pIC50: < 3.70

## NC1CCCC2CCC(N)C12 (configuration not stated)
  pEC50: < 3.70
  pIC50: 5.02

## CC[C@@H]1CC2CN3CCc4c([nH]c5ccc(OC)cc45)C(CO)(C2)C13 (some centres not stated)
  outcome: inactive

## CCSC1(SCC)CC(Cc2ccc(OC)cc2)N(C=NC(C)(C)C)C1 (configuration not stated)
  pEC50: < 3.62
  pIC50: 4.24

## CC1(C)SCc2nc3ccccc3n21
  pEC50: < 3.70
  pIC50: 3.73

## c1snnc1-c1cnns1
  pEC50: < 3.70
  pIC50: < 3.70

## C=CC[C@]12C[C@@H](C(=O)OC)N(C(=O)OC)[C@H]1N(S(=O)(=O)c1ccccc1)c1ccccc12
  pEC50: < 3.70
  pIC50: 4.13

## O=C(/C(=C/c1ccccc1Cl)c1ccccc1)c1ccccc1
  pEC50: < 5.07
  pIC50: < 5.07

## O=C(O)CSCCCCSCC(=O)O
  pEC50: < 2.98
  pIC50: < 2.98

## CCC1(O)C(=O)c2ccccc2N(c2ccccc2)C1=O (configuration not stated)
  pEC50: < 3.70
  pIC50: < 3.70

## O=C(CCc1nnc2s/c(=C\c3ccc4c(c3)OCO4)c(=O)n12)Nc1cc(Cl)ccc1Cl
  pEC50: 4.14
  pIC50: 3.29

## CCOC(=O)CSc1c([N+](=O)[O-])ncn1C
  pEC50: < 2.99
  pIC50: 3.77

## O=C(O)C1CC2C3C=CC(C3)C2C1 (configuration not stated) (tested in a mixture with another compound)
  pEC50: < 4.19
  pIC50: 4.34

## COc1ccccc1NC(=S)N/N=C/c1ccccn1
  pEC50: < 6.70
  pIC50: 7.02

## S=P1(Oc2ccccc2)NNP2(=NP(N3CC3)(N3CC3)=NP(N3CC3)(N3CC3)=N2)NN1 (configuration not stated)
  pEC50: < 4.30
  pIC50: 5.29

## O=C(Cc1ccc(Cl)cc1)NC(NC(=O)Cc1ccc(Cl)cc1)C(Cl)(Cl)Cl
  pEC50: < 3.70
  pIC50: < 3.70

## COc1cc2cc(C(=O)N3CC(CCl)c4ccc([N+](C)(C)Cc5ccc([N+](=O)[O-])cc5)cc43)[nH]c2c(OC)c1OC (configuration not stated)
  pEC50: < 3.70
  pIC50: 5.11

## CC(C)C1NC(=O)C(Cc2ccccc2)NC(=O)C2NC(=O)C(Cc3ccccc3)NC(=O)C3CCCN3C(=O)CNC(=O)C(Cc3ccccc3)NC(=O)C3CNCCCCC(C(=O)O)NC(=O)C4NC(=O)C(CC(N)=O)NC(=O)CNC(=O)C(C(O)C(=O)O)NC(=O)C(CSCC(NC(=O)C(CCC(N)=O)NC(=O)C(CCCNC(=N)N)NC(=O)C(N)CSC4C)C(=O)NC(CSC2C)C(=O)N3)NC1=O (configuration not stated)
  outcome: active

## COC(=O)C(N=O)C(=O)OC
  outcome: inactive

## COc1cc(OC)c(C(=O)/C=C/c2ccc(OC)c(OC)c2)c(OC)c1
  outcome: inactive

## C=CCCCCCCCCCOC1C=CC(O)C(CO)O1 (configuration not stated)
  pEC50: < 3.70
  pIC50: 4.45

## O=[N+]([O-])C(/C=C(\Cl)[N+](=O)[O-])=C(N1CCCCC1)N1CCCCC1
  pEC50: < 3.70
  pIC50: 4.12

## COc1ccc(NC(=O)CCc2cc(C(C)(C)C)n[nH]2)cc1
  pEC50: < 3.08
  pIC50: < 3.08

## NC(CSS(=O)(=O)O)=NCCCC1CCCCC1
  pEC50: < 3.70
  pIC50: 3.99

## O=C1C2C=CC(n3[nH]c(=O)n(Cc4ccccc4)c3=O)CC2C(=O)N1c1cccc(Cl)c1 (configuration not stated)
  pEC50: < 3.40
  pIC50: < 3.40

## CNC(=O)OCc1nc(N=[N+]=[N-])n(C)c1COC(=O)NC
  pEC50: < 3.70
  pIC50: 4.37

## Cn1c(=O)ccc2c1nc1ccccc1[n+]2[O-]
  pEC50: < 4.22
  pIC50: < 4.22

## Cc1cccc(C)c1NC(=O)CCC(=O)NC(N)=NC#N
  pEC50: < 3.34
  pIC50: < 3.34

## O=C(O)c1ccc([N+](=O)[O-])cc1S(=O)(=O)O
  pEC50: < 3.70
  pIC50: < 3.70

## Cc1c(Cc2ccccc2)n(C(C)OCCN(O)C(N)=O)c(=O)[nH]c1=O (configuration not stated)
  pEC50: < 3.70
  pIC50: < 3.70

## NC(N)=NS(=O)(=O)c1ccc(N=c2c3ccccc3n(Cc3ccccc3)c3ccccc23)cc1
  outcome: inactive

## CCP(=O)(OC)C1=CCN(C(=O)OCC[Si](C)(C)C)CC1 (configuration not stated)
  pEC50: < 3.70
  pIC50: < 3.70

## COCOc1c(C(O[Si](C)(C)C(C)(C)C)c2cnc(Sc3ccccc3)n2C)ccc(OC)c1OC (configuration not stated)
  pEC50: < 3.70
  pIC50: 5.37

## O=[N+]([O-])c1ccccc1S(=O)(=O)c1cc(Cl)cc2c1NCCC2
  pEC50: < 3.82
  pIC50: 4.54

— PubChem BioAssay AID179 (DTP/NCI, 2004)
